Experimental data from patent US4795812A, “4-substituted-6-aryl-pyrimidine compounds” (The Upjohn Company, priority 1986, dated 1989).
Converted amounts (≈) assume the structure as drawn. Where two headings read alike, the source gives them in different places. One block for each compound: values may come before it.

What was measured:
[1] = test system: L-1210 mouse leukemia cells; experiment: L-1210 tube dilution assay, inhibition of mouse leukemia cell growth in vitro; format: cell-based; details: for inhibition of growth of L-1210 cells (in words): in vitro; for IC50 / IC90: Mus musculus
Text: ID50 and ID90 refer to the concentration of compound needed to inhibit cell growth by 50 and 90 percent, respectively.

P. vulgaris = experiment: In vitro disk plate assay, Proteus vulgaris; format: cell-based
Description: (§1) The antibacterial spectrum of 4-(1-azindinyl)-6-phenyl-2-pyrimidinamine was determined in an in vitro disk plate assay. The assay procedure is as follows:
(§2) A solution of 4-(1-aziridinyl)-6-phenyl-2-pyrimidinamine was prepared at 1 mg/ml in distilled water. Paper assay disks (1/2 inch) were dripped into the solution and spotted on seeded agar trays.

test organisms = experiment: In vitro disk plate assay, test organisms other than Proteus vulgaris; format: cell-based
Description: as §1, §2

P388 leukemia = experiment: In vivo P-388 mouse leukemia test (i.p.); details: for % ILS (% increase in life span of treated compared to control animals) / Weight Change: daily × 9, i.p.; for % ILS (% increase in life span of treated compared to control animals): Klucel suspension; for Weight Change: between days 1 and 5 after tumor inoculation
Text: (§3) The P-388 mouse leukemia test is described in detail in a publication by G. L. Neil, et al, Cancer Treatment Reports 63, 1971-1978 (1979).
(§4) ^a mg/kg/day, daily × 9, i.p., administered as a Klucel
(§5) ^b % increase in life span of treated compared to control animals.
(§6) ^c g/mouse between days 1 and 5 after tumor inoculation.
(§7) The NCI-designated criteria of significant activity for synthetic agents in these 3 systems are: for P388, 20% ILS; L1210 and B16, 25% ILS.

L-1210 leukemia = experiment: In vivo L-1210 leukemia test in mice (i.p.); design: species or system mouse; details: for % ILS (% increase in life span of treated compared to control animals) / Weight Change: i.p.-L1210, daily × 9, i.p.; for % ILS (% increase in life span of treated compared to control animals): Klucel suspension; for Weight Change: between days 1 and 5 after tumor inoculation
Text: as §3, §4, §5, §6, §7

B-16 melanoma = experiment: In vivo B-16 melanoma test in mice (i.p.); design: species or system mouse; details: for % ILS (% increase in life span of treated compared to control animals) / Weight Change: i.p.-B16, daily × 9, i.p.; for % ILS (% increase in life span of treated compared to control animals): Klucel suspension; for Weight Change: between days 1 and 5 after tumor inoculation
Text: as §3, §4, §5, §6, §7

E. coli = experiment: In vitro disk plate assay, E. coli; format: cell-based; details: 1 mg/ml in distilled water, 1/2 inch disk, 18 hours
Description: as §1, §2

S. schottmuelleri = experiment: In vitro disk plate assay, S. schottmuelleri; format: cell-based; details: medium B (Nutrient Agar); 1 mg/ml in distilled water, 1/2 inch disk, 18 hours
Description: as §1, §2

B. fragilis = experiment: In vitro disk plate assay, B. fragilis; format: cell-based; details: medium H (Schaedler Agar); 1 mg/ml in distilled water, 1/2 inch disk, 18 hours
Description: as §1, §2

S. lutea = experiment: In vitro disk plate assay, S. lutea; format: cell-based; details: 1 mg/ml in distilled water, 1/2 inch disk, 18 hours
Description: as §1, §2

S. pastorianus = experiment: In vitro disk plate assay, S. pastorianus; format: cell-based; details: medium G (Gray's Medium); 1 mg/ml in distilled water, 1/2 inch disk, 18 hours
Description: as §1, §2

Ps. aeruginosa = experiment: In vitro disk plate assay, Ps. aeruginosa; format: cell-based; details: medium B (Nutrient Agar); 1 mg/ml in distilled water, 1/2 inch disk, 18 hours
Description: as §1, §2

S. aureus = experiment: In vitro disk plate assay, S. aureus; format: cell-based; details: medium B (Nutrient Agar); 1 mg/ml in distilled water, 1/2 inch disk, 18 hours
Description: as §1, §2

[2] = test system: Rhodopseudomonas spheroides; experiment: In vitro disk plate assay, Rhodopseudomonas spheroides; format: cell-based; details: medium F (Plate Count Medium); 1 mg/ml in distilled water, 1/2 inch disk, 18 hours
Description: as §1, §2

K. pneumoniae = experiment: In vitro disk plate assay, K. pneumoniae; format: cell-based; details: medium A (Streptomycin Assay Agar); 1 mg/ml in distilled water, 1/2 inch disk, 18 hours
Description: as §1, §2

S. pyogenes = experiment: In vitro disk plate assay, S. pyogenes; format: cell-based, Streptococcus pyogenes; details: medium D (Brain Heart Infusion Agar); 1 mg/ml in distilled water, 1/2 inch disk, 18 hours
Description: as §1, §2

M. avium = experiment: In vitro disk plate assay, M. avium; format: cell-based; details: medium D (Brain Heart Infusion Agar); 1 mg/ml in distilled water, 1/2 inch disk, 18 hours
Description: as §1, §2

[3] = L1210 cells in vitro, 50 percent inhibition of cell growth, read-out: L1210 ID50
[4] = L1210 cells in vitro, 90 percent inhibition of cell growth, read-out: L1210 ID90
[5] = i.p.-P388, first series, 5 mg/kg/day
[6] = i.p.-P388, first series, 10 mg/kg/day
[7] = i.p.-P388, first series, 20 mg/kg/day
[8] = i.p.-P388, first series, 40 mg/kg/day
[9] = i.p.-P388, second series, 5 mg/kg/day
[10] = i.p.-P388, second series, 10 mg/kg/day
[11] = i.p.-P388, second series, 20 mg/kg/day
[12] = i.p.-P388, second series, 40 mg/kg/day

Compound: Nc1nc(Cl)cc(-c2ccccc2)n1 [Example 1, 4-chloro-6-phenyl-2-pyrimidinamine]
- inhibition of growth of L-1210 cells (in words) [1]: inhibit the growth of L-1210 mouse leukemia cells in vitro
- zone of inhibition at 1000 µg/mL (P. vulgaris; 18 h, Proteus vulgaris, above-identified in vitro disk plate assay, medium not given): 20 mm
- antibacterial activity against the other test organisms (in words) (test organisms): No other antibacterial activity against the test organisms was observed

- IC50 [1, 3]: 1.8 µg/mL (≈ 5.43 µM)
- IC90 [1, 4]: 3.9 µg/mL (≈ 11.8 µM)
Compound: Nc1nc(Cl)c(I)c(-c2ccccc2)n1 [drawing 9]

Compound: Nc1nc(NCCN2CC2)c(F)c(-c2ccccc2)n1 [drawing 6]
- IC50 ([1]; L1210, read-out: L1210 ID50): 0.78 µg/mL (≈ 2.85 µM)
- IC90 ([1]; L1210, read-out: L1210 ID90): 2.1 µg/mL (≈ 7.68 µM)

Compound: Nc1nc(-c2ccccc2)c(Br)c(N2CC2)n1 [drawing 5]
- IC50 ([1]; L1210, read-out: L1210 ID50): 1.2 µg/mL (≈ 4.12 µM)
- IC90 ([1]; L1210, read-out: L1210 ID90): 3.2 µg/mL (≈ 11 µM)

- IC50 [1, 3]: 0.64 µg/mL (≈ 2.25 µM)
- IC90 [1, 4]: 1.6 µg/mL (≈ 5.62 µM)
Compound: Nc1nc(Cl)c(Br)c(-c2ccccc2)n1 [drawing 10]

Compound: Nc1nc(Cl)c(I)c(-c2ccccc2)n1 [Example 8, 4-chloro-5-iodo-6-phenyl-2-pyrimidinamine]
- inhibition of growth of L-1210 cells (in words) [1]: inhibit the growth of L-1210 mouse leukemia cells in vitro

Compound: Nc1nc(Cl)cc(-c2ccccc2)n1 [drawing 11]
- IC50 [1, 3]: 8.2 µg/mL (≈ 39.9 µM)
- IC90 [1, 4]: 19 µg/mL (≈ 92.4 µM)

Compound: Nc1nc(Cl)c(Br)c(-c2ccccc2)n1 [Example 6, 5-bromo-4-chloro-6-phenyl-2-pyrimidinamine]
- inhibition of growth of L-1210 cells (in words) [1]: inhibit the growth of L-1210 mouse leukemia cells in vitro

Compound: Nc1nc(-c2ccccc2)cc(N2CC2)n1 [Example 2, 4-(1-aziridyl)-6-phenyl-2-pyrimidinamine]
- inhibition of growth of L-1210 cells (in words) [1]: inhibit the growth of L-1210 mouse leukemia cells in vitro
- % ILS (% increase in life span of treated compared to control animals) (P388 leukemia; [5]): 10%
- Weight Change (P388 leukemia; [5]): +1.8 g/mouse
- % ILS (% increase in life span of treated compared to control animals) (P388 leukemia; [6]): 11%
- Weight Change (P388 leukemia; [6]): +2.1 g/mouse
- % ILS (% increase in life span of treated compared to control animals) (P388 leukemia; [7]): 25%
- Weight Change (P388 leukemia; [7]): -0.7 g/mouse
- % ILS (% increase in life span of treated compared to control animals) (P388 leukemia; [8]): 47%
- Weight Change (P388 leukemia; [8]): -3.8 g/mouse
- % ILS (% increase in life span of treated compared to control animals) (P388 leukemia; [9]): 14%
- Weight Change (P388 leukemia; [9]): +1.8 g/mouse
- % ILS (% increase in life span of treated compared to control animals) (P388 leukemia; [10]): 11%
- Weight Change (P388 leukemia; [10]): +2.1 g/mouse
- % ILS (% increase in life span of treated compared to control animals) (P388 leukemia; [11]): 17%
- Weight Change (P388 leukemia; [11]): +0.5 g/mouse
- % ILS (% increase in life span of treated compared to control animals) (P388 leukemia; [12]): 26%
- Weight Change (P388 leukemia; [12]): -2.0 g/mouse
- in vivo activity against P388 leukemia (in words) (P388 leukemia; mice): demonstrated activity in vivo against P388 and L-1210 leukemias in mice
- % ILS (% increase in life span of treated compared to control animals) (L-1210 leukemia; 5 mg/kg/day): 0%
- Weight Change (L-1210 leukemia; 5 mg/kg/day): +1.2 g/mouse
- % ILS (% increase in life span of treated compared to control animals) (L-1210 leukemia; 10 mg/kg/day): 0%
- Weight Change (L-1210 leukemia; 10 mg/kg/day): +1.5 g/mouse
- % ILS (% increase in life span of treated compared to control animals) (L-1210 leukemia; 20 mg/kg/day): 9%
- Weight Change (L-1210 leukemia; 20 mg/kg/day): +0.6 g/mouse
- % ILS (% increase in life span of treated compared to control animals) (L-1210 leukemia; 40 mg/kg/day): 24%
- Weight Change (L-1210 leukemia; 40 mg/kg/day): -2.4 g/mouse
- in vivo activity against L-1210 leukemia (in words) (L-1210 leukemia; mice): demonstrated activity in vivo against P388 and L-1210 leukemias in mice
- % ILS (% increase in life span of treated compared to control animals) (B-16 melanoma; 6.3 mg/kg/day): 2%
- Weight Change (B-16 melanoma; 6.3 mg/kg/day): +1.2 g/mouse
- % ILS (% increase in life span of treated compared to control animals) (B-16 melanoma; 12.5 mg/kg/day): 4%
- Weight Change (B-16 melanoma; 12.5 mg/kg/day): +0.3 g/mouse
- % ILS (% increase in life span of treated compared to control animals) (B-16 melanoma; 25 mg/kg/day): 11%
- Weight Change (B-16 melanoma; 25 mg/kg/day): -0.5 g/mouse
- % ILS (% increase in life span of treated compared to control animals) (B-16 melanoma; 50 mg/kg/day): 7%
- Weight Change (B-16 melanoma; 50 mg/kg/day): -3.0 g/mouse
- in vivo activity against B-16 melanoma (in words) (B-16 melanoma; mice): no in vivo activity in mice against B-16 melanoma
- Zone of Inhibition (E. coli; medium B (Nutrient Agar)): 0 mm
- Zone of Inhibition (E. coli; medium E (Synthetic Medium)): 0 mm
- Zone of Inhibition (S. schottmuelleri): 0 mm
- Zone of Inhibition (B. fragilis): 23 mm
- Zone of Inhibition (S. lutea; S. lutea+, medium B (Nutrient Agar)): 0 mm
- Zone of Inhibition (S. lutea; S. luteau, medium C (PenAssay Seed Agar)): 0 mm
- Zone of Inhibition (S. pastorianus): 0 mm
- Zone of Inhibition (P. vulgaris; medium B (Nutrient Agar), 1 mg/ml in distilled water, 1/2 inch disk, 18 hours): 0 mm
- Zone of Inhibition (Ps. aeruginosa): 0 mm
- Zone of Inhibition (S. aureus): 0 mm
- Zone of Inhibition [2]: 18 mm
- Zone of Inhibition (K. pneumoniae): 0 mm
- Zone of Inhibition (S. pyogenes): 21 mm
- Zone of Inhibition (M. avium): 0 mm

- IC50 [1, 3]: 0.91 µg/mL (≈ 3.79 µM)
- IC90 [1, 4]: 2.1 µg/mL (≈ 8.75 µM)
Compound: Nc1nc(Cl)c(Cl)c(-c2ccccc2)n1 [drawing 8]

Compound: Nc1nc(-c2ccccc2)c(Br)c(N2CC2)n1 [Example 3, 4-(1-aziridyl)-5-bromo-6-phenyl-2-pyrimidinamine]
- inhibition of growth of L-1210 cells (in words) [1]: inhibit the growth of L-1210 mouse leukemia cells in vitro

Compound: Nc1nc(Cl)c(F)c(-c2ccccc2)n1 [Example 4, 4-chloro-5-fluoro-6-phenyl-2-pyrimidinamine]
- inhibition of growth of L-1210 cells (in words) [1]: inhibit the growth of L-1210 mouse leukemia cells in vitro

- IC50 [1, 3]: 0.18 µg/mL (≈ 0.805 µM)
- IC90 [1, 4]: 0.55 µg/mL (≈ 2.46 µM)
Compound: Nc1nc(Cl)c(F)c(-c2ccccc2)n1 [drawing 7]

Compound: Nc1nc(NCCN2CC2)c(F)c(-c2ccccc2)n1 [Example 5, N'-[2-(1-aziridyl)ethyl]-5-fluoro-6-phenyl-2,4-pyrimidinediamine]
- inhibition of growth of L-1210 cells (in words) [1]: inhibit the growth of L-1210 mouse leukemia cells in vitro

Compound: Nc1nc(Cl)c(Cl)c(-c2ccccc2)n1 [Example 7, 4,5-dichloro-6-phenyl-2-pyrimidinamine]
- inhibition of growth of L-1210 cells (in words) [1]: inhibit the growth of L-1210 mouse leukemia cells in vitro
